From patent EP3388419A1, “GLI1 INHIBITORS AND USES THEREOF” (Leadiant Biosciences SA, priority 2017, dated 2018)
Entries after “also recorded” stand apart in the source; their conditions may differ. Read-outs that look alike come from different tables or passages of the source.

Legend:
Gli1 protein = assay: Effect on Gli1 protein expression by Western blotting in SAG-stimulated NIH3T3 cells; format: cell-based, murine; design: key to Effect on Gli1 protein: +++: Gli1 protein level strongly reduced (almost abolished) at 24 and 48 h compared to DMSO control; ++: Gli1 protein level reduced (more than 50%) at 48 h compared to DMSO control; +: Gli1 protein level is weakly reduced (about 50%) at 48 h compared to DMSO control; details: compound 1 µM; for Effect on Gli1 protein: NIH3T3 cells stimulated with SAG (100nM), 24 or 48 h, compared to DMSO control; for Gli1 protein level: Figure 1, NIH3T3 cells, 48 h, reference GANT61 5 µM, result in words
Method: The effect of compounds on Gli1 protein expression was evaluated in HH-responsive murine NIH3T3 cells by Western blotting. Both Gli1 and Ptch1 are targets of the Gli, and Gli1 in particular is considered the best read-out of HH signaling activity.
Briefly, NIH3T3 were stimulated for 48 h with 3-chloro-N-[trans-4-(methylamino)cyclohexyl]-N-[[3-(4-pyridinyl)phenyl]methyl]-benzo[b]thiophene-2-carboxamide (SAG) (100nM) to activate the endogenous HH pathway, and treated for 24 or 48 h with each compound (1 µM). NIH3T3 cells were lysed and subjected to Western blotting using a specific anti-GLI1 antibody. The effect of each compound was compared to that of GANT61 (5 µM), a well known Gli1/2 inhibitor (Lauth M. et al. PNAS 2007, 104, 8455).

[1] = test system: A375 (metastatic melanoma cell line); assay: Cancer cell proliferation, MTT-based assay, A375; details: Homo sapiens, A-375, A375, 72 h
Method: (§1) The effects on cancer cell proliferation were tested for those compounds shown to be able to reduce Gli1 protein level in NIH3T3 cells. Two different commercial cancer cell lines were used: A375 (metastatic melanoma cell line) and DAOY (medulloblastoma cell line).
(§2) To test the effects on cancer cell proliferation, both cell types were treated for 72 h with increasing doses (10 nM, 50 nM, 100 nM, 250 nM, 500 nM, 1 µM, 5 µM) of each compound and counted at the end of the treatment with an MTT-based assay. IC50 was calculated by GraphPad Prism software.

[2] = test system: DAOY (medulloblastoma cell line); assay: Cancer cell proliferation, MTT-based assay, DAOY; details: Homo sapiens, 72 h
Method: as §1, §2

[3] = Table 3, commercially available compounds
[4] = Table 3, commercially available compounds, read-out: Effect on proliferation A375 (IC50; nM)
[5] = Table 3, commercially available compounds, read-out: Effect on proliferation DAOY (IC50; nM)
[6] = Table 2, new compounds, read-out: Effect on proliferation A375 (IC50; nM)
[7] = Table 2, new compounds, read-out: Effect on proliferation DAOY (IC50; nM)
[8] = Figure 2 dose-response curve, read-out: IC50

Structure (SMILES) | Effect on Gli1 protein (Gli1 protein; [3]) | IC50 [1, 4] | IC50 [2, 5] | Effect on Gli1 protein (Gli1 protein; Table 2, new compounds) | IC50 [1, 6] | IC50 [2, 7] | Gli1 protein level (Gli1 protein) | IC50 [1, 8] | IC50 [2, 8]
CCCCC(=O)NC(c1ccc(C(C)C)cc1)c1cc(Cl)c2cccnc2c1O (stereo not shown) [SST0774AA1, Pentanamide, N-[(5-chloro-8-hydroxy-7-quinolinyl)[4-(1-methylethyl)phenyl]methyl]-] | +++ | ≤ 300 nM | ≤ 300 nM | – | – | – | – | – | –
CCCC(=O)NC(c1ccc(Cl)cc1Cl)c1ccc2cccnc2c1O (stereo not shown) [SST0776AA1, Butanamide, N-[(2,4-dichlorophenyl)(8-hydroxy-7-quinolinyl)methyl]-] | +++ | ≤ 300 nM | ≤ 300 nM | – | – | – | – | – | –
c1cnc2c3c(ccc2c1)CN(C1CCCCCC1)CO3 [SST0913AA1, 3-cycloheptyl-3,4-dihydro-2H-[1,3]oxazino[5,6-h]quinoline] | – | – | – | + | 300 to 1000 nM | ≥ 1000 nM | – | – | –
COc1ccc(C(NC(=O)C(C)C)c2cc(Cl)c3cccnc3c2O)cc1OC (stereo not shown) [SST0769AA1, Propanamide, N-[(5-chloro-8-hydroxy-7-quinolinyl)(3,4-dimethoxyphenyl)methyl]-2-methyl-] | ++ (Gli1 protein level reduced (more than 50%) at 48 h compared to DMSO control) | 300 to 1000 nM | 300 to 1000 nM | – | – | – | – | – | –
CCCC(=O)NC(c1ccc(N(CC)CC)cc1)c1cc(Cl)c2cccnc2c1O (stereo not shown) [SST0771AA1, Butanamide, N-[(5-chloro-8-hydroxy-7-quinolinyl)[4-(diethylamino)phenyl]methyl]-] | +++ | 300 to 1000 nM | 300 to 1000 nM | – | – | – | – | – | –
Clc1cc2c(c3ncccc13)OCN(CCc1ccccc1)C2 [SST0794AA1, 2H-Pyrido[3,2-h]-1,3-benzoxazine, 6-chloro-3,4-dihydro-3-(2-phenylethyl)-] | ++ (Gli1 protein level reduced (more than 50%) at 48 h compared to DMSO control) | ≤ 300 nM | ≤ 300 nM | – | – | – | – | – | –
O=C1Oc2c(ccc3cccnc23)C(c2ccc(Cl)cc2Cl)N1CCc1ccccc1 (stereo not shown) [SST0826AA1, 4-(2,4-dichlorophenyl)-3-phenethyl-3,4-dihydro-2H-[1,3]oxazino[5,6-h]quinolin-2-one] | – | – | – | – | – | – | slight reduction in Gli1 protein level | – | –
CCCC(=O)NC(c1ccc(Cl)cc1Cl)c1cc(Cl)c2cccnc2c1O (stereo not shown) [SST0689AA1, N-[(5-Chloro-8-hydroxy-quinolin-7-yl)-(2,4-dichlorophenyl)-methyl]-butyramide] | +++ | 300 to 1000 nM | 300 to 1000 nM | – | – | – | – | – | –
CCCC(=O)NC(c1ccc(C)cc1)c1cc(Cl)c2cccnc2c1O (stereo not shown) [SST0773AA1, Butanamide, N-[(5-chloro-8-hydroxy-7-quinolinyl)(4-methylphenyl)methyl]-] | + | 300 to 1000 nM | 300 to 1000 nM | – | – | – | – | – | –
Clc1cc2c(c3ncccc13)OCN(CCC1=CCCCC1)C2 [SST0791AA1, 2H-Pyrido[3,2-h]-1,3-benzoxazine, 6-chloro-3-[2-(1-cyclohexen-1-yl)ethyl]-3,4-dihydro-] | ++ (Gli1 protein level reduced (more than 50%) at 48 h compared to DMSO control) | ≤ 300 nM | ≤ 300 nM | – | – | – | – | – | –
Fc1cnc2c3c(ccc2c1)CN(CCc1ccccc1)CO3 [SST0891AA1, 8-fluoro-3-phenethyl-3,4-dihydro-2H-[1,3]oxazino[5,6-h]quinoline] | – | – | – | + | ≥ 1000 nM | ≥ 1000 nM | comparable to that obtained with GANT61 | – | –
CCCCC(=O)NC(c1ccc(OC)c(OC)c1)c1ccc2cccnc2c1O (stereo not shown) [SST0777AA1, Pentanamide, N-[(3,4-dimethoxyphenyl)(8-hydroxy-7-quinolinyl)methyl]] | +++ | 300 to 1000 nM | 300 to 1000 nM | – | – | – | – | – | –
CCCCN1COc2c(cc(Cl)c3cccnc23)C1 [SST0793AA1, 2H-Pyrido[3,2-h]-1,3-benzoxazine, 3-butyl-6-chloro-3,4-dihydro-] | ++ (Gli1 protein level reduced (more than 50%) at 48 h compared to DMSO control) | 300 to 1000 nM | 300 to 1000 nM | – | – | – | – | – | –
c1ccc2c(c1)CCC(N1COc3c(ccc4cccnc34)C1)C2 (stereo not shown) [SST0893AA1, 3-(1,2,3,4-tetrahydronaphthalen-2-yl)-3,4-dihydro-2H-[1,3]oxazino[5,6-h]quinoline] | – | – | – | + | 300 to 1000 nM | 300 to 1000 nM | – | – | –
CCCC(=O)NC(c1ccccc1Cl)c1cc(Cl)c2cccnc2c1O (stereo not shown) [SST0775AA1, Butanamide, N-[(5-chloro-8-hydroxy-7-quinolinyl)(2-chlorophenyl)methyl]-] | + | 300 to 1000 nM | 300 to 1000 nM | – | – | – | – | – | –
c1ccc(CCN2COc3c(ccc4cccnc34)C2)cc1 [SST0823AA1, 3-phenethyl-3,4-dihydro-2H-[1,3]oxazino[5,6-h]quinoline] | – | – | – | +++ | ≤ 300 nM | ≤ 300 nM | drastic reduction of Gli1 protein level; also recorded: abolish Gli1 protein level | – | –
c1cnc2c3c(ccc2c1)CN(C1CCCCC1)CO3 [SST0892AA1, 3-cyclohexyl-3,4-dihydro-2H-[1,3]oxazino[5,6-h]quinoline] | – | – | – | +++ | ≤ 300 nM | 300 to 1000 nM | drastic reduction of Gli1 protein level; also recorded: abolish Gli1 protein level | 300 nM | 500 nM
Clc1cc2c(c3ncccc13)OCN(CCCN1CCOCC1)C2 [SST0792AA1, 2H-Pyrido[3,2-h]-1,3-benzoxazine, 6-chloro-3,4-dihydro-3-[3-(4-morpholinyl)propyl]-] | + | ≤ 300 nM | ≥ 1000 nM | – | – | – | – | – | –
Oc1c(C(NCCc2ccccc2)c2ccc(Cl)cc2Cl)ccc2cccnc12 (stereo not shown) [SST0827AA1, 7-((2,4-dichlorophenyl)(phenethylamino)methyl)quinolin-8-ol] | – | – | – | +++ | ≤ 300 nM | ≤ 300 nM | drastic reduction of Gli1 protein level; also recorded: abolish Gli1 protein level | – | –
COc1ccc(CN2COc3c(ccc4cccnc34)C2)cc1 [SST0910AA1, 3-(4-methoxybenzyl)-3,4-dihydro-2H-[1,3]oxazino[5,6-h]quinoline] | – | – | – | + | 300 to 1000 nM | 300 to 1000 nM | – | – | –
c1cnc2c3c(ccc2c1)CN(CC1CCCCC1)CO3 [SST0912AA1, 3-(cyclohexylmethyl)-3,4-dihydro-2H-[1,3]oxazino[5,6-h]quinoline] | – | – | – | + | 300 to 1000 nM | ≥ 1000 nM | – | – | –
COc1ccc(C(NC(C)=O)c2cc(Cl)c3cccnc3c2O)cc1OC (stereo not shown) [SST0687AA1, N-[(5-Chloro-8-hydroxy-quinolin-7-yl)-(3,4-dimethoxy-phenyl)-methyl]-acetamide] | +++ | 300 to 1000 nM | 300 to 1000 nM | – | – | – | – | – | –
